Tested on: GFP-LC3 puncta formation in PC12 cells
Assay: Quantification of autophagy GFP-LC3 puncta
Format: cell-based, rat
Settings: fluorescent microscopy
Experimental: Quantification of autophagy GFP-LC3 Puncta. GFP-LC3 puncta formation was quantified as described previously. In brief, cells grown on coverslips in a 6-well plate were fixed in 4% paraformaldehyde for 20 minutes at room temperature and then rinsed with PBS. Slides were mounted with FluorSave™ mounting media (Calbiochem, San Diego, Calif.) and examined by fluorescence microscopy. The number of GFP-positive cells with GFP-LC3 puncta formation was examined under the Nikon ECLIPSE 80i microscope. Representative images were captured with CCD digital camera Spot RT3™ (Diagnostic Instruments, Inc., Melville, N.Y.). To quantify autophagy, the percentage of cells with punctate GFP-LC3 fluorescence was calculated by counting the number of the cells with punctate GFP-LC3 fluorescence in GFP-positive cells. A minimum of 150 cells from 3 randomly selected fields was scored.

Row | Structure (SMILES) | GFP-LC3 puncta formation
1 | CC1(C)CC[C@]2(C(=O)O)CCC3=C([C@@H](CCl)C[C@@H]4[C@@]5(C)C[C@H](O)[C@H](O)[C@@](C)(C(=O)O)[C@@H]5CC[C@@]34C)[C@@H]2C1 [senegenin] | no autophagy activity
2 | CC1(C)CCC2(C(=O)O)C(O)CC3(C)C(=CCC4C5(C)CC(O)C(O)C(C)(CO)C5CCC43C)C2C1 (centres unmarked) [polygalacic acid] | no autophagy activity

From patent publication US9005677B2, “Autophagy enhancer for treatment of neurodegenerative diseases” (Macau University of Science and Technology, priority 2013, dated 2015)
